Several values for one entry are separate records, joined by “and”; a condition that tells them apart may be missing. Equal values may be shown once. Toxic doses and inconclusive results are not listed.
Test system: L1210 leukemia ip in BDF1 mice, survival T/C
Assay: NCI In Vivo Anticancer Drug Screen. Data for tumor model L1210 Leukemia (intraperitoneal) in B6D2F1 (BDF1) mice
Conditions: endpoint: mean survival time, higher = longer survival
In short: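 Read-out is survival time, reported as the treated-group measurement over the vehicle-control measurement.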

[1] = dose: 50.0 mg/kg/injection, schedule: Q01DX001 (ip), vehicle: saline
[2] = dose: 400.0 mg/kg/injection, schedule: Q01DX001 (ip), vehicle: carboxymethylcellulose (CMC)
[3] = dose: 100.0 mg/kg/injection, schedule: Q04DX003 (ip), vehicle: Klucel (hydroxypropylcellulose) (HPC)
[4] = dose: 200.0 mg/kg/injection, schedule: Q01DX001 (ip), vehicle: carboxymethylcellulose (CMC)
[5] = dose: 100.0 mg/kg/injection, schedule: Q01DX001 (ip), vehicle: carboxymethylcellulose (CMC)
[6] = dose: 25.0 mg/kg/injection, schedule: Q04DX003 (ip), vehicle: Klucel (hydroxypropylcellulose) (HPC)
[7] = dose: 50.0 mg/kg/injection, schedule: Q04DX003 (ip), vehicle: Klucel (hydroxypropylcellulose) (HPC)

CS(=O)(=O)Nc1ccc(Nc2c3ccccc3nc3ccccc23)cc1
T/C (dose: 10.0 mg/kg/injection, schedule: Q01DX009 (sc), vehicle: saline): 108 % of control | T/C (dose: 12.5 mg/kg/injection, schedule: Q01DX001 (ip), vehicle: saline): 101 % of control | T/C (dose: 20.0 mg/kg/injection, schedule: Q01DX009 (ip), vehicle: saline): 161 % of control | T/C (dose: 20.0 mg/kg/injection, schedule: Q01DX009 (sc), vehicle: saline): 116 % of control | T/C (dose: 25.0 mg/kg/injection, schedule: Q01DX001 (ip), vehicle: saline): 119 % of control | T/C (dose: 40.0 mg/kg/injection, schedule: Q01DX009 (ip), vehicle: saline): 107 % of control | T/C [1]: 104 % of control | T/C (dose: 117.0 mg/kg/injection, schedule: Q01DX009 (ip), vehicle: carboxymethylcellulose (CMC)): 97 % of control | T/C (dose: 176.0 mg/kg/injection, schedule: Q01DX001 (ip), vehicle: carboxymethylcellulose (CMC)): 151 % of control | T/C (dose: 176.0 mg/kg/injection, schedule: Q01DX009 (ip), vehicle: carboxymethylcellulose (CMC)): 100 % of control | T/C (dose: 240.0 mg/kg/injection, schedule: Q04DX003 (ip), vehicle: Klucel (hydroxypropylcellulose) (HPC)): 156 % of control | T/C (dose: 264.0 mg/kg/injection, schedule: Q01DX001 (ip), vehicle: carboxymethylcellulose (CMC)): 161 % of control | T/C (dose: 266.0 mg/kg/injection, schedule: Q01DX001 (ip), vehicle: carboxymethylcellulose (CMC)): 158 % of control | T/C [2]: 150 % of control | T/C (dose: 600.0 mg/kg/injection, schedule: Q01DX001 (ip), vehicle: carboxymethylcellulose (CMC)): 179 % of control and 253 % of control

O=C(c1ccccc1)c1ccc(NC(=S)Nc2ccc(C(=O)c3ccccc3)cc2)cc1
T/C (dose: 20.0 mg/kg/injection, schedule: Q01DX005 (ip), vehicle: saline with Tween-80): 97 % of control | T/C (dose: 40.0 mg/kg/injection, schedule: Q01DX005 (ip), vehicle: saline with Tween-80): 92 % of control | T/C (dose: 80.0 mg/kg/injection, schedule: Q01DX005 (ip), vehicle: saline with Tween-80): 92 % of control | T/C (dose: 160.0 mg/kg/injection, schedule: Q01DX005 (ip), vehicle: saline with Tween-80): 95 % of control | T/C (dose: 320.0 mg/kg/injection, schedule: Q01DX005 (ip), vehicle: saline with Tween-80): 97 % of control

N#Cc1cccc(-c2nc3ncnc(N)c3[nH]2)c1
T/C [3]: 94 % of control | T/C (dose: 200.0 mg/kg/injection, schedule: Q04DX003 (ip), vehicle: Klucel (hydroxypropylcellulose) (HPC)): 96 % of control | T/C (dose: 400.0 mg/kg/injection, schedule: Q04DX003 (ip), vehicle: Klucel (hydroxypropylcellulose) (HPC)): 92 % of control

C[Si](C)O[Si](C)C
T/C (dose: 100.0 mg/kg/injection, schedule: Q04DX003 (ip), vehicle: saline): 91 % of control | T/C (dose: 200.0 mg/kg/injection, schedule: Q04DX003 (ip), vehicle: saline): 101 % of control | T/C (dose: 400.0 mg/kg/injection, schedule: Q04DX003 (ip), vehicle: saline): 101 % of control

COc1cc(C=Nc2cc(Br)c(OC)c(Br)c2)ccc1N(CCCl)CCCl
T/C (dose: 19.0 mg/kg/injection, schedule: Q01DX001 (ip), vehicle: carboxymethylcellulose (CMC)): 118 % of control | T/C (dose: 29.0 mg/kg/injection, schedule: Q01DX001 (ip), vehicle: carboxymethylcellulose (CMC)): 118 % of control | T/C (dose: 150.0 mg/kg/injection, schedule: Q01DX001 (ip), vehicle: carboxymethylcellulose (CMC)): 150 % of control | T/C [4]: 104 % of control

CN(C)C1c2cc(Cl)ccc2-c2c(Cl)cc(Cl)cc21 (stereo unspecified)
T/C (dose: 50.0 mg/kg/injection, schedule: Q01DX001 (ip), vehicle: carboxymethylcellulose (CMC)): 100 % of control | T/C [5]: 102 % of control | T/C [4]: 100 % of control | T/C [2]: 105 % of control

CC(C)CCc1c(N)nc(N)nc1N
T/C [6]: 93 % of control | T/C [7]: 96 % of control

CCCCCCCCCCCCCCCCCC[n+]1cccc(C(=O)N2CCOCC2)c1
T/C (dose: 2.0 mg/kg/injection, schedule: Q01DX009 (ip), vehicle: Klucel (hydroxypropylcellulose) (HPC)): 97 % of control | T/C (dose: 4.0 mg/kg/injection, schedule: Q01DX009 (ip), vehicle: Klucel (hydroxypropylcellulose) (HPC)): 110 % of control | T/C (dose: 8.0 mg/kg/injection, schedule: Q01DX009 (ip), vehicle: Klucel (hydroxypropylcellulose) (HPC)): 98 % of control | T/C (dose: 12.5 mg/kg/injection, schedule: Q04DX003 (ip), vehicle: Klucel (hydroxypropylcellulose) (HPC)): 88 % of control | T/C (dose: 16.0 mg/kg/injection, schedule: Q01DX009 (ip), vehicle: Klucel (hydroxypropylcellulose) (HPC)): 104 % of control | T/C [6]: 96 % of control | T/C (dose: 32.0 mg/kg/injection, schedule: Q01DX009 (ip), vehicle: Klucel (hydroxypropylcellulose) (HPC)): 90 % of control | T/C [7]: 93 % of control | T/C [3]: 92 % of control

CC(C)CC(NC(=O)c1ccccc1)C(=O)O (stereo unspecified)
T/C (dose: 200.0 mg/kg/injection, schedule: Q01DX009 (ip), vehicle: saline with Tween-80): 88 % of control | T/C (dose: 264.0 mg/kg/injection, schedule: Q01DX009 (ip), vehicle: saline with Tween-80): 97 % of control | T/C (dose: 600.0 mg/kg/injection, schedule: Q01DX009 (ip), vehicle: saline with Tween-80): 92 % of control

O=C(Nc1ccccc1F)N(Cc1ccccc1)Cc1ccccc1
T/C (dose: 50.0 mg/kg/injection, schedule: Q01DX009 (ip), vehicle: Klucel (hydroxypropylcellulose) (HPC)): 96 % of control | T/C (dose: 100.0 mg/kg/injection, schedule: Q01DX009 (ip), vehicle: Klucel (hydroxypropylcellulose) (HPC)): 104 % of control | T/C (dose: 200.0 mg/kg/injection, schedule: Q01DX009 (ip), vehicle: Klucel (hydroxypropylcellulose) (HPC)): 101 % of control

COc1cc(C(=O)NC(=S)Nc2ccc3ccccc3c2)cc(OC)c1OC
T/C (dose: 100.0 mg/kg/injection, schedule: Q04DX002 (ip), vehicle: saline with Tween-80): 91 % of control | T/C (dose: 200.0 mg/kg/injection, schedule: Q04DX002 (ip), vehicle: saline with Tween-80): 97 % of control | T/C (dose: 400.0 mg/kg/injection, schedule: Q04DX002 (ip), vehicle: saline with Tween-80): 91 % of control

Fc1ccc(CSc2ncnc3c2ncn3C2CCCCO2)cc1 (stereo unspecified)
T/C (dose: 3.0 mg/kg/injection, schedule: Q01DX015 (ip), vehicle: carboxymethylcellulose (CMC)): 97 % of control | T/C (dose: 6.0 mg/kg/injection, schedule: Q01DX015 (ip), vehicle: carboxymethylcellulose (CMC)): 97 % of control | T/C (dose: 12.0 mg/kg/injection, schedule: Q01DX015 (ip), vehicle: carboxymethylcellulose (CMC)): 98 % of control | T/C (dose: 25.0 mg/kg/injection, schedule: Q01DX015 (ip), vehicle: carboxymethylcellulose (CMC)): 102 % of control | T/C (dose: 50.0 mg/kg/injection, schedule: Q01DX015 (ip), vehicle: carboxymethylcellulose (CMC)): 101 % of control | T/C [5]: 96 % of control | T/C (dose: 100.0 mg/kg/injection, schedule: Q01DX015 (ip), vehicle: carboxymethylcellulose (CMC)): 103 % of control | T/C [4]: 96 % of control | T/C (dose: 200.0 mg/kg/injection, schedule: Q01DX015 (ip), vehicle: carboxymethylcellulose (CMC)): 119 % of control | T/C [2]: 102 % of control | T/C (dose: 400.0 mg/kg/injection, schedule: Q01DX015 (ip), vehicle: carboxymethylcellulose (CMC)): 166 % of control | T/C (dose: 800.0 mg/kg/injection, schedule: Q01DX001 (ip), vehicle: carboxymethylcellulose (CMC)): 102 % of control | T/C (dose: 1600.0 mg/kg/injection, schedule: Q01DX001 (ip), vehicle: carboxymethylcellulose (CMC)): 112 % of control

CCOC1(OCC)C([N+](=O)[O-])=CC(=[N+]([O-])O)C=C1[N+](=O)[O-]
T/C [1]: 102 % of control | T/C (dose: 100.0 mg/kg/injection, schedule: Q01DX001 (ip), vehicle: saline): 98 % of control | T/C (dose: 200.0 mg/kg/injection, schedule: Q01DX001 (ip), vehicle: saline): 98 % of control | T/C (dose: 400.0 mg/kg/injection, schedule: Q01DX001 (ip), vehicle: saline): 101 % of control

O=C1c2ccccc2C(=O)c2c(O)c(N3CCOCC3)cc(O)c21
T/C (dose: 0.25 mg/kg/injection, schedule: Q04DX003 (ip), vehicle: water): 90 % of control | T/C (dose: 0.5 mg/kg/injection, schedule: Q04DX003 (ip), vehicle: water): 102 % of control | T/C (dose: 1.0 mg/kg/injection, schedule: Q04DX003 (ip), vehicle: water): 110 % of control | T/C (dose: 2.0 mg/kg/injection, schedule: Q04DX003 (ip), vehicle: water): 100 % of control | T/C (dose: 4.0 mg/kg/injection, schedule: Q04DX003 (ip), vehicle: water): 102 % of control | T/C (dose: 8.0 mg/kg/injection, schedule: Q04DX003 (ip), vehicle: water): 100 % of control | T/C (dose: 16.0 mg/kg/injection, schedule: Q04DX003 (ip), vehicle: saline): 102 % of control | T/C (dose: 16.0 mg/kg/injection, schedule: Q04DX003 (ip), vehicle: water): 100 % of control | T/C (dose: 32.0 mg/kg/injection, schedule: Q04DX003 (ip), vehicle: saline): 110 % of control | T/C (dose: 64.0 mg/kg/injection, schedule: Q04DX003 (ip), vehicle: saline): 102 % of control

— PubChem BioAssay AID248 (DTP/NCI, 2004)
